The source of these data is patent publication US10703765B2 (priority 2014, dated 2020).

Where a name gives a salt, the structure may show the parent alone.

Chain of human σ1 receptor (Q99720 whole entry): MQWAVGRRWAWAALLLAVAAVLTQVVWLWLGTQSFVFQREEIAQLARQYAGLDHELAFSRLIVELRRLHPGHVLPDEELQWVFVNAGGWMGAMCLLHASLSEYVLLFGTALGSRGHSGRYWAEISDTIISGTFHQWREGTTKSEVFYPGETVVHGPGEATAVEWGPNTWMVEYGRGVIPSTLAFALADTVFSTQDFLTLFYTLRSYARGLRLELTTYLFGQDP

One test addresses human σ1 receptor (Homo sapiens, UniProt Q99720). The experiment in a line: biochemical. The test is classed as binding. The arrangement: μ and σ1 dual binding: key to the marks not given beside the values.
Details: not given
As for `CC1OC2(CCN(CCc3cccnc3N)CC2)CN(c2ccccc2)C1=O` (stereo not shown) [Example 234, 9-(2-(2-aminopyridin-3-yl)ethyl)-2-methyl-4-phenyl-1-oxa-4,9-diazaspiro[5.5]undecan-3-one hydrochloride], the Ki is < 500 nM.
On the same count and under the same terms, the same measure for `CC(C)C1OC2(CCN(CCc3cccnc3N)CC2)CN(c2ccccc2F)C1=O` (stereo not shown) [Example 238, 9-(2-(2-aminopyridin-3-yl)ethyl)-4-(2-fluorophenyl)-2-isopropyl-1-oxa-4,9-diazaspiro[5.5]undecan-3-one dihydrochloride]: < 100 nM.
As for `CC(=O)Nc1ccc(CCN2CCC3(CC2)CN(c2ccccc2)C(=O)C(C)O3)cc1.Cl` (stereo not shown) [Example 241, N-(4-(2-(2-methyl-3-oxo-4-phenyl-1-oxa-4,9-diazaspiro[5.5]undecan-9-yl)ethyl)phenyl)acetamide hydrochloride], the “μ and σ1 dual binding” value is on record as “++”.
Still for that read-out and setting: the same measure for `CC(=O)Nc1cccc(N2CC3(CCN(CCc4ccccc4)CC3)OC(C)C2=O)c1` (stereo not shown) [Example 242, N-(3-(2-methyl-3-oxo-9-phenethyl-1-oxa-4,9-diazaspiro[5.5]undecan-4-yl)phenyl)acetamide]: “++”; for `CC(=O)Nc1ccccc1CCN1CCC2(CC1)CN(c1ccccc1)C(=O)C(C)O2` (stereo not shown) [Example 245, N-(2-(2-(2-methyl-3-oxo-4-phenyl-1-oxa-4,9-diazaspiro[5.5]undecan-9-yl)ethyl)phenyl)acetamide]: “++”.
Consider `CC(=O)Nc1cccc(CCN2CCC3(CC2)CN(c2ccccc2)C(=O)C2(CC2)O3)c1` [Example 246, N-[3-(2-{13-oxo-12-phenyl-4-oxa-8,12-diazadispiro[2.1.5.3]tridecan-8-yl}ethyl)phenyl]acetamide], for which the Ki is < 500 nM.
For the compound `CC(=O)Nc1cccc(CCN2CCC3(CC2)CN(c2ccccc2)C(=O)C(C)O3)n1.Cl` (stereo not shown) [Example 254, N-(6-(2-(2-methyl-3-oxo-4-phenyl-1-oxa-4,9-diazaspiro[5.5]undecan-9-yl)ethyl)pyridin-2-yl)acetamide hydrochloride], the “μ and σ1 dual binding” value is recorded as “++”.
As for `CC1OC2(CCN(CCc3cccc(NS(C)(=O)=O)c3)CC2)CN(c2ccccc2)C1=O` (stereo not shown) [Example 256, N-(3-(2-(2-methyl-3-oxo-4-phenyl-1-oxa-4,9-diazaspiro[5.5]undecan-9-yl)ethyl)phenyl)methanesulfonamide], the Ki is < 500 nM.
On the same count and under the same terms, the same measure for `CC1OC2(CCN(CCc3ccccc3NS(C)(=O)=O)CC2)CN(c2ccccc2)C1=O` (stereo not shown) [Example 257, N-(2-(2-(2-methyl-3-oxo-4-phenyl-1-oxa-4,9-diazaspiro[5.5]undecan-9-yl)ethyl)phenyl)methanesulfonamide]: < 500 nM; for `CC1OC2(CCN(CCc3cccc(NS(=O)(=O)C(C)C)c3)CC2)CN(c2ccccc2)C1=O` (stereo not shown) [Example 261, N-(3-(2-(2-methyl-3-oxo-4-phenyl-1-oxa-4,9-diazaspiro[5.5]undecan-9-yl)ethyl)phenyl)propane-2-sulfonamide hydrochloride]: < 500 nM.
As for `CC1OC2(CCN(CCc3cccc(NC(N)=O)c3)CC2)CN(c2ccccc2)C1=O` (stereo not shown) [Example 262, 1-(3-(2-(2-methyl-3-oxo-4-phenyl-1-oxa-4,9-diazaspiro[5.5]undecan-9-yl)ethyl)phenyl)urea], the Ki is < 500 nM.

Staying with this test, now noted: combined class from Ki-σ1 (human σ1 receptor, A1) and Ki-μ (human μ-opioid receptor, A2) radioligand binding.
For the compound `CC1OC2(CCN(CCc3ccc(N)cn3)CC2)CN(c2ccccc2F)C1=O` (stereo not shown) [Example 230, 9-(2-(5-aminopyridin-2-yl)ethyl)-4-(2-fluorophenyl)-2-methyl-1-oxa-4,9-diazaspiro[5.5]undecan-3-one], the “μ and σ1 dual binding” value is “++”.
On the same count and under the same terms, the same measure for `CC1OC2(CCN(CCc3ncccc3N)CC2)CN(c2ccccc2F)C1=O` (stereo not shown) [Example 232, 9-(2-(3-aminopyridin-2-yl)ethyl)-4-(2-fluorophenyl)-2-methyl-1-oxa-4,9-diazaspiro[5.5]undecan-3-one]: “++”; for `CC(C)C(=O)Nc1cccc(CCN2CCC3(CC2)CN(c2ccccc2)C(=O)C(C)O3)c1` (stereo not shown) [Example 247, N-(3-(2-(2-methyl-3-oxo-4-phenyl-1-oxa-4,9-diazaspiro[5.5]undecan-9-yl)ethyl)phenyl)isobutyramide]: “++”; for `CC1OC2(CCN(CCc3cccc(NC(=O)N(C)C)c3)CC2)CN(c2ccccc2)C1=O` (stereo not shown) [Example 248, 1,1-dimethyl-3-(3-(2-(2-methyl-3-oxo-4-phenyl-1-oxa-4,9-diazaspiro[5.5]undecan-9-yl)ethyl)phenyl)urea]: “++”.
Turning to `CC1OC2(CCN(CCc3ccc(NS(C)(=O)=O)cc3)CC2)CN(c2ccccc2)C1=O` (stereo not shown) [Example 258, N-(4-(2-(2-methyl-3-oxo-4-phenyl-1-oxa-4,9-diazaspiro[5.5]undecan-9-yl)ethyl)phenyl)methanesulfonamide], the “μ and σ1 dual binding” value was “++”.

Staying with this test, now noted: read-out: μ and σ1 dual binding.
As to `Nc1cccc(CCN2CCC3(CC2)CN(c2ccccc2)C(=O)C2(CC2)O3)c1` [Example 231, 8-(3-aminophenethyl)-12-phenyl-4-oxa-8,12-diazadispiro[2.1.5.3]tridecan-13-one], the Ki was > 500 nM.
On the same count and under the same terms, the same measure for `Nc1cccc(CN2CC3(CCN(CCc4ccccc4)CC3)OCC2=O)c1` [Example 233, 4-(3-aminobenzyl)-9-phenethyl-1-oxa-4,9-diazaspiro[5.5]undecan-3-one hydrochloride]: < 500 nM; for `Nc1cccc(CCN2CCC3(CC2)CN(Cc2ccc(C(F)(F)F)cn2)C(=O)CO3)c1` [Example 235, 9-(3-aminophenethyl)-4-((5-(trifluoromethyl)pyridin-2-yl)methyl)-1-oxa-4,9-diazaspiro[5.5]undecan-3-one]: > 500 nM.
Same read-out and setting: in the case of `CC1OC2(CCN(CCc3ccc(N)cn3)CC2)CN(c2ccccc2)C1=O` (stereo not shown) [Example 236, 9-(2-(5-aminopyridin-2-yl)ethyl)-2-methyl-4-phenyl-1-oxa-4,9-diazaspiro[5.5]undecan-3-one] it was > 500 nM.
Same read-out and setting: the same measure for `CC1OC2(CCN(CCn3ccc(N)n3)CC2)CN(c2ccccc2)C1=O` (stereo not shown) [Example 237, 9-(2-(3-amino-1H-pyrazol-1-yl)ethyl)-2-methyl-4-phenyl-1-oxa-4,9-diazaspiro[5.5]undecan-3-one hydrochloride]: > 500 nM; for `Nc1cccc(CCN2CCC3(CC2)CN(Cc2ccc(C(F)(F)F)cn2)C(=O)C2(CC2)O3)c1` [Example 239, 8-(3-aminophenethyl)-12-{[5-(trifluoromethyl)pyridin-2-yl]methyl}-4-oxa-8,12-diazadispiro[2.1.5.3]tridecan-13-one]: > 500 nM.
Take `CC1OC2(CCN(CCc3cccnc3N)CC2)CN(c2cnccc2C(F)(F)F)C1=O` (stereo not shown) [Example 240, 9-(2-(2-aminopyridin-3-yl)ethyl)-2-methyl-4-(4-(trifluoromethyl)pyridin-3-yl)-1-oxa-4,9-diazaspiro[5.5]undecan-3-one hydrochloride]: the Ki is > 500 nM.
Same read-out and setting: in the case of `CC(=O)Nc1cccc(CCN2CCC3(CC2)CN(c2ccccc2)C(=O)C(C)O3)c1` (stereo not shown) [Example 243, N-(3-(2-(2-methyl-3-oxo-4-phenyl-1-oxa-4,9-diazaspiro[5.5]undecan-9-yl)ethyl)phenyl)acetamide] it was < 500 nM.
The same measure, in the same setting: the same measure for `CC(=O)Nc1cccc(CCN2CCC3(CC2)CN(c2ccccc2)C(=O)[C@H](C)O3)c1` [Example 244a, (S)-N-(3-(2-(2-methyl-3-oxo-4-phenyl-1-oxa-4,9-diazaspiro[5.5]undecan-9-yl)ethyl)phenyl)acetamide hydrochloride]: < 500 nM.
On to `CC(=O)Nc1cccc(CCN2CCC3(CC2)CN(c2ccccc2)C(=O)[C@@H](C)O3)c1` [Example 244b, (R)-N-(3-(2-(2-methyl-3-oxo-4-phenyl-1-oxa-4,9-diazaspiro[5.5]undecan-9-yl)ethyl)phenyl)acetamide hydrochloride], for which the Ki is < 100 nM.
Same read-out and setting: the same measure for `CC(=O)Nc1cccc(CN2CC3(CCN(CCc4ccccc4)CC3)OCC2=O)c1` [Example 249, N-(3-((3-oxo-9-phenethyl-1-oxa-4,9-diazaspiro[5.5]undecan-4-yl)methyl)phenyl)acetamide hydrochloride]: > 500 nM.
On the same count and under the same terms, in the case of `CC(=O)Nc1cccnc1CCN1CCC2(CC1)CN(c1ccccc1F)C(=O)C(C)O2` (stereo not shown) [Example 250, N-(2-(2-(4-(2-fluorophenyl)-2-methyl-3-oxo-1-oxa-4,9-diazaspiro[5.5]undecan-9-yl)ethyl)pyridin-3-yl)acetamide] it was > 500 nM; in that of `CC(=O)Nc1cccc(CCN2CCC3(CC2)CN(Cc2ccc(C(F)(F)F)cn2)C(=O)CO3)c1` [Example 251, N-(3-(2-(3-oxo-4-((5-(trifluoromethyl)pyridin-2-yl)methyl)-1-oxa-4,9-diazaspiro[5.5]undecan-9-yl)ethyl)phenyl)acetamide hydrochloride], < 500 nM; in that of `CC(=O)Nc1ccc(CCN2CCC3(CC2)CN(c2ccccc2)C(=O)C(C)O3)nc1` (stereo not shown) [Example 252, N-(6-(2-(2-methyl-3-oxo-4-phenyl-1-oxa-4,9-diazaspiro[5.5]undecan-9-yl)ethyl)pyridin-3-yl)acetamide], > 500 nM.
On the same count and under the same terms, the same measure for `CC(=O)Nc1ccnc(CCN2CCC3(CC2)CN(c2ccccc2)C(=O)C(C)O3)c1` (stereo not shown) [Example 253, N-(2-(2-(2-methyl-3-oxo-4-phenyl-1-oxa-4,9-diazaspiro[5.5]undecan-9-yl)ethyl)pyridin-4-yl)acetamide hydrochloride]: > 500 nM; for `CC(=O)Nc1cc(CCN2CCC3(CC2)CN(c2ccccc2)C(=O)C(C)O3)ccn1` (stereo not shown) [Example 255, N-(4-(2-(2-methyl-3-oxo-4-phenyl-1-oxa-4,9-diazaspiro[5.5]undecan-9-yl)ethyl)pyridin-2-yl)acetamide hydrochloride]: > 500 nM; for `CS(=O)(=O)Nc1cccc(CN2CC3(CCN(CCc4ccccc4)CC3)OCC2=O)c1` [Example 259, N-(3-((3-oxo-9-phenethyl-1-oxa-4,9-diazaspiro[5.5]undecan-4-yl)methyl)phenyl)methanesulfonamide hydrochloride]: > 500 nM.
`CS(=O)(=O)Nc1cccc(CCN2CCC3(CC2)CN(c2ccccc2)C(=O)C2(CC2)O3)c1` [Example 260, N-[3-(2-{13-oxo-12-phenyl-4-oxa-8,12-diazadispiro[2.1.5.3]tridecan-8-yl}ethyl)phenyl]methanesulfonamide hydrochloride]: the Ki is < 500 nM.
